Results taken from ChEMBL document CHEMBL5113480, “Discovery of novel biphenyl-substituted pyridone derivatives as potent non-nucleoside reverse transcriptase inhibitors with promising oral bioavailability” (Eur J Med Chem, 2022).

What was measured:
[1] = tested on: Human immunodeficiency virus 1; assay: Antiviral activity against HIV-1 ROD infected in human MT4 cells assessed as reduction in viral replication by MTT assay; assay type: functional, organism-based
[2] = Selectivity index, ratio of CC50 for cytotoxicity against human MT4 cells to EC50 of Anti-HIV activity against HIV-1 IIIB infected in human MT4 cells; assay type: toxicity, cell-based; settings: read-out: Ratio CC50/EC50
[3] = Cytotoxicity against human MT4 cells assessed as reduction on cell growth by MTT assay; assay type: toxicity, cell-based
[4] = tested on: Human immunodeficiency virus 1; assay: Antiviral activity against HIV-1 IIIB infected in human MT4 cells assessed as reduction in viral replication by MTT assay; assay type: functional, organism-based; settings: Human immunodeficiency virus 1, IIIB
[5] = tested on: Human immunodeficiency virus 1; assay: Antiviral activity against HIV-1 Y188L mutant infected in human MT4 cells assessed as reduction in viral replication by MTT assay; assay type: functional, organism-based; settings: Human immunodeficiency virus 1, Y188L mutant
[6] = tested on: Human immunodeficiency virus 1; assay: Antiviral activity against HIV-1 L100I mutant infected in human MT4 cells assessed as reduction in viral replication by MTT assay; assay type: functional, organism-based; settings: Human immunodeficiency virus 1, L100I mutant
[7] = tested on: Human immunodeficiency virus 1; assay: Antiviral activity against HIV-1 K103N-Y181C mutant infected in human MT4 cells assessed as reduction in viral replication by MTT assay; assay type: functional, organism-based; settings: Human immunodeficiency virus 1, K103N-Y181C mutant
[8] = tested on: Human immunodeficiency virus 1; assay: Antiviral activity against HIV-1 Y181C mutant infected in human MT4 cells assessed as reduction in viral replication by MTT assay; assay type: functional, organism-based; settings: Human immunodeficiency virus 1, Y181C mutant
[9] = tested on: Human immunodeficiency virus 1; assay: Antiviral activity against HIV-1 E138K mutant infected in human MT4 cells assessed as reduction in viral replication by MTT assay; assay type: functional, organism-based; settings: Human immunodeficiency virus 1, E138K mutant
[10] = tested on: Human immunodeficiency virus 1; assay: Antiviral activity against HIV-1 K103N mutant infected in human MT4 cells assessed as reduction in viral replication by MTT assay; assay type: functional, organism-based; settings: Human immunodeficiency virus 1, K103N mutant
[11] = tested on: Human immunodeficiency virus 1; assay: Antiviral activity against HIV-1 F227L-V106A mutant infected in human MT4 cells assessed as reduction in viral replication by MTT assay; assay type: functional, organism-based; settings: Human immunodeficiency virus 1, F227L-V106A mutant
[12] = target: Human immunodeficiency virus type 1 reverse transcriptase (Human immunodeficiency virus 1, UniProt Q72547); assay: Inhibition of wild type HIV-1 Reverse transcriptase

Row | SMILES | EC50 [1] | selectivity ratio [2] | CC50 [3] | EC50 [4] | EC50 [5] | EC50 [6] | EC50 [7] | EC50 [8] | EC50 [9] | EC50 [10] | EC50 [11] | IC50 [12]
1 | Cn1c(Cn2ccc(C(F)(F)F)c(Oc3ccc(-c4cccc(F)c4)cc3F)c2=O)n[nH]c1=O | > 35 µM | ≤ 1 | 46.8 µM | > 35 µM |  |  |  |  |  |  |  | 
2 | Cn1c(Cn2ccc(C(F)(F)F)c(Oc3c(F)cc(-c4ccc(F)c(C#N)c4)cc3F)c2=O)n[nH]c1=O | > 35 µM | 30.7 | 18.9 µM | 0.62 µM | > 35 µM | 1.61 µM | > 35 µM | 4.69 µM | 2.09 µM | 1.2 µM | > 35 µM | 1.65 µM
3 | Cn1c(Cn2ccc(C(F)(F)F)c(Oc3ccc(-c4ccc(F)cc4)cc3Cl)c2=O)n[nH]c1=O | > 35 µM | < 1 | 16.7 µM | > 35 µM |  |  |  |  |  |  |  | 
4 | Cn1c(Cn2ccc(C(F)(F)F)c(Oc3c(F)cc(-c4cccc(F)c4)cc3F)c2=O)n[nH]c1=O | > 35 µM | 4.42 | 25.4 µM | 5.74 µM | > 35 µM | 4.15 µM | > 35 µM | > 35 µM | 6.81 µM | 6.34 µM | > 35 µM | 26.3 µM
5 | Cc1cccc(-c2cc(F)c(Oc3c(C(F)(F)F)ccn(Cc4n[nH]c(=O)n4C)c3=O)c(F)c2)c1 | > 35 µM | < 1 | 20.9 µM | > 35 µM |  |  |  |  |  |  |  | 
6 | Cc1cc(C#N)cc(C)c1Oc1nc(Nc2ccc(C#N)cc2)nc(N)c1Br [ETRAVIRINE] | > 35 µM | > 1600 | > 4.6 µM | 0.029 µM | 0.018 µM |  | 0.031 µM |  |  |  |  | 
7 | Cc1cc(Oc2c(C(F)(F)F)ccn(Cc3n[nH]c(=O)n3C)c2=O)ccc1-c1cc(F)cc(C#N)c1 | > 35 µM | 29.4 | 45.6 µM | 1.55 µM | > 35 µM | 3.84 µM | > 35 µM | > 35 µM | 2.54 µM | 8.02 µM | > 35 µM | 3.67 µM
8 | Cc1cccc(-c2ccc(Oc3c(C(F)(F)F)ccn(Cc4n[nH]c(=O)n4C)c3=O)cc2)c1 | > 35 µM | < 1 | 32.3 µM | > 35 µM |  |  |  |  |  |  |  | 
9 | Cn1c(Cn2ccc(C(F)(F)F)c(Oc3ccc(-c4ccc(C#N)cc4)cc3F)c2=O)n[nH]c1=O | > 35 µM | 8.72 | 41.8 µM | 4.8 µM | > 35 µM | 4.6 µM | > 35 µM | 48.3 µM | 7.06 µM | 6.13 µM | > 35 µM | 6.35 µM
10 | Cc1cccc(-c2ccc(Oc3c(C(F)(F)F)ccn(Cc4n[nH]c(=O)n4C)c3=O)c(F)c2)c1 | > 35 µM | ≤ 1 | 20.3 µM | > 35 µM |  |  |  |  |  |  |  | 
11 | Cn1c(Cn2ccc(C(F)(F)F)c(Oc3ccc(-c4cccc(C#N)c4)c(F)c3F)c2=O)n[nH]c1=O | > 35 µM | 50.8 | 48.8 µM | 0.96 µM | > 35 µM | 1.59 µM | > 35 µM | 8.36 µM | 1.6 µM | 2.87 µM | > 35 µM | 1.31 µM
12 | Cc1ccccc1-c1ccc(Oc2c(C(F)(F)F)ccn(Cc3n[nH]c(=O)n3C)c2=O)cc1F | > 35 µM | 8.6 | 33.8 µM | 3.93 µM | 104 µM | 5.3 µM | 115 µM | 5.54 µM | 4.51 µM | 7.78 µM | > 35 µM | 3.21 µM
13 | Cn1c(Cn2ccc(C(F)(F)F)c(Oc3ccc(-c4cc(F)cc(C#N)c4)c(F)c3)c2=O)n[nH]c1=O | > 35 µM | 143 | 105 µM | 0.74 µM | 39.8 µM | 1.86 µM | 36.6 µM | 12.1 µM | 1.34 µM | 2.47 µM | > 35 µM | 1.02 µM
14 | Cn1c(Cn2ccc(C(F)(F)F)c(Oc3cc(C#N)cc(-c4cc(F)cc(C#N)c4)c3)c2=O)n[nH]c1=O | > 35 µM | 2810 | 84.4 µM | 0.03 µM | 0.88 µM | 0.05 µM | 0.42 µM | 0.18 µM | 0.062 µM | 0.026 µM | > 35 µM | 0.17 µM
15 | Cc1ccc(-c2ccc(Oc3c(C(F)(F)F)ccn(Cc4n[nH]c(=O)n4C)c3=O)cc2)cc1 | > 35 µM | < 1 | 25 µM | > 35 µM |  |  |  |  |  |  |  | 
16 | Cn1c(Cn2ccc(C(F)(F)F)c(Oc3ccc(-c4cccc(F)c4)cc3Cl)c2=O)n[nH]c1=O | > 35 µM | < 1 | 20.1 µM | > 35 µM |  |  |  |  |  |  |  | 
17 | Cn1c(Cn2ccc(C(F)(F)F)c(Oc3ccc(-c4ccc(C#N)cc4)cc3Cl)c2=O)n[nH]c1=O | > 35 µM | 3.58 | 21.5 µM | 6.02 µM | > 35 µM | 4.55 µM | > 35 µM | > 35 µM | 6.18 µM | 6.35 µM | > 35 µM | 6.73 µM

Row | SMILES | EC50 [1] | selectivity ratio [2] | CC50 [3] | EC50 [4] | EC50 [5] | EC50 [6] | EC50 [7] | EC50 [8] | EC50 [9] | EC50 [10] | EC50 [11] | IC50 [12]
18 | Cn1c(Cn2ccc(C(F)(F)F)c(Oc3ccc(-c4cccc(F)c4)c(F)c3)c2=O)n[nH]c1=O | > 35 µM | 36.4 | 51.5 µM | 1.42 µM | > 35 µM | 1.52 µM | > 35 µM | 28.6 µM | 2.16 µM | 4.39 µM | > 35 µM | 2.33 µM
19 | Cc1cccc(-c2ccc(Oc3c(C(F)(F)F)ccn(Cc4n[nH]c(=O)n4C)c3=O)cc2F)c1 | > 35 µM | 6.05 | 27.7 µM | 4.58 µM | > 35 µM | 4.83 µM | > 35 µM | > 35 µM |  | > 35 µM | 7.66 µM | 17.9 µM
20 | Cn1c(Cn2ccc(C(F)(F)F)c(Oc3ccc(-c4cccc(F)c4)cc3)c2=O)n[nH]c1=O | > 35 µM | < 1 | 48.3 µM | > 35 µM |  |  |  |  |  |  |  | 
21 | Cc1ccc(-c2ccc(Oc3c(C(F)(F)F)ccn(Cc4n[nH]c(=O)n4C)c3=O)cc2C)cc1 | > 35 µM | < 1 | 26.6 µM | > 35 µM |  |  |  |  |  |  |  | 
22 | Cc1cccc(-c2ccc(Oc3c(C(F)(F)F)ccn(Cc4n[nH]c(=O)n4C)c3=O)c(C)c2)c1 | > 35 µM | ≤ 2 | 19.1 µM | > 35 µM |  |  |  |  |  |  |  | 
23 | Cc1ccc(-c2cc(F)c(Oc3c(C(F)(F)F)ccn(Cc4n[nH]c(=O)n4C)c3=O)c(F)c2)cc1 | > 35 µM | < 1 | 20.5 µM | > 35 µM |  |  |  |  |  |  |  | 
24 | Cc1ccc(-c2ccc(Oc3c(C(F)(F)F)ccn(Cc4n[nH]c(=O)n4C)c3=O)cc2F)cc1 | > 35 µM | 3.52 | 28.2 µM | 8.05 µM |  |  |  |  |  |  |  | 
25 | Cn1c(Cn2ccc(C(F)(F)F)c(Oc3ccc(-c4ccc(F)cc4)cc3)c2=O)n[nH]c1=O | > 35 µM | < 1 | 36.5 µM | > 35 µM |  |  |  |  |  |  |  | 
26 | Cc1ccc(-c2ccc(Oc3c(C(F)(F)F)ccn(Cc4n[nH]c(=O)n4C)c3=O)c(C)c2)cc1 | > 35 µM | ≤ 1 | 16.9 µM | > 35 µM |  |  |  |  |  |  |  | 
27 | Cn1c(Cn2ccc(C(F)(F)F)c(Oc3ccc(-c4ccc(F)c(C#N)c4)cc3)c2=O)n[nH]c1=O | > 35 µM | 6.75 | 49.1 µM | 7.28 µM |  |  |  |  |  |  |  | 
28 | Cn1c(Cn2ccc(C(F)(F)F)c(Oc3ccc(-c4ccc(F)cc4)cc3F)c2=O)n[nH]c1=O | > 35 µM | < 1 | 24.1 µM | > 35 µM |  |  |  |  |  |  |  | 
29 | Cc1cc(Oc2c(C(F)(F)F)ccn(Cc3n[nH]c(=O)n3C)c2=O)ccc1-c1ccc(F)cc1 | > 35 µM | ≤ 4 | 23.7 µM | > 35 µM |  |  |  |  |  |  |  | 
30 | Cc1ccc(-c2ccc(Oc3c(C(F)(F)F)ccn(Cc4n[nH]c(=O)n4C)c3=O)c(Cl)c2)cc1 | > 35 µM | < 1 | 50.9 µM | > 35 µM |  |  |  |  |  |  |  | 
31 | Cc1cccc(-c2ccc(Oc3c(C(F)(F)F)ccn(Cc4n[nH]c(=O)n4C)c3=O)c(Cl)c2)c1 | > 35 µM | < 1 | 24.7 µM | > 35 µM |  |  |  |  |  |  |  | 
32 | Cn1c(Cn2ccc(C(F)(F)F)c(Oc3ccc(-c4ccc(F)cc4)c(F)c3)c2=O)n[nH]c1=O | > 35 µM | 2.87 | 25.6 µM | 8.92 µM |  |  |  |  |  |  |  | 
33 | Cc1ccc(-c2ccc(Oc3c(C(F)(F)F)ccn(Cc4n[nH]c(=O)n4C)c3=O)c(F)c2)cc1 | > 35 µM | < 1 | 38 µM | > 35 µM |  |  |  |  |  |  |  | 
34 | Cn1c(Cn2ccc(C(F)(F)F)c(Oc3c(F)cc(-c4ccc(F)cc4)cc3F)c2=O)n[nH]c1=O | > 35 µM | ≤ 2 | 18.2 µM | > 35 µM |  |  |  |  |  |  |  | 
